For experiment [1], the target named is T1, human c-mpl-Ba/F3 cells (Homo sapiens, UniProt P40238).
T1 construct: expressed in transfected cells; host or cells: Ba/F3 (murine pro-B cells) expressing human c-mpl
T1 sequence (P40238 26-635): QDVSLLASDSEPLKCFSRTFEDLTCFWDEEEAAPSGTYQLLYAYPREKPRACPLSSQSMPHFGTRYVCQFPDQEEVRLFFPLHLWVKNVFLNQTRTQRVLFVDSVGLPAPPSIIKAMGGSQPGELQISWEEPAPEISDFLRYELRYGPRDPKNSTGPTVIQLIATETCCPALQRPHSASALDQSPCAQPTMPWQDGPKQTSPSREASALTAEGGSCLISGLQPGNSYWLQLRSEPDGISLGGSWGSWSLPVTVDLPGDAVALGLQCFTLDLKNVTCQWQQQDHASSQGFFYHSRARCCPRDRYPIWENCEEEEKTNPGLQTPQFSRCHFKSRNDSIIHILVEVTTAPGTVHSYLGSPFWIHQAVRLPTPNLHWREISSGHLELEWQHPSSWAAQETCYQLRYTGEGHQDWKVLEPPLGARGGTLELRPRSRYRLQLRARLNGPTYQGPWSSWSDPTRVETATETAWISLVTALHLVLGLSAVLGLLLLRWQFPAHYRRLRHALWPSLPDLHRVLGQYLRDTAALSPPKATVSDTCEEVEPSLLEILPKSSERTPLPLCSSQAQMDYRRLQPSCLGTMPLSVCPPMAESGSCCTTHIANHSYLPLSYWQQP
The experiment is described as follows: Human c-mpl-Ba/F3 cell growth test. The class given is cell-based. To be noted: for Pot: concentration at which cell growth is accelerated by 30% of the maximum cell growth activity of compound A, 24 h culture; for Emax: maximum cell growth activity, maximum of compound A defined as 100%, read-out: Efficacy. The procedure: (i) Human c-mpl-Ba/F3 Cell Growth Test
In a 96-well microplate, 2×10^5 cells/ml of human c-mpl-Ba/F3 cells were cultured at 37° C. in 10% fetal bovine serum-containing RPMI1640 medium (100 μl/well) containing each test compound at each concentration. After 24 hours from the start-up of culture, 10 μl/well of WST-1/1-methoxy PMS (cell counting kit, Dojin) was added. Immediately after addition and 2 hours after addition, absorbance of A450/A650 was measured with a microplate reader (Model 3350: Bio-Rad), and an increase in absorbance for 2 hours was defined as a growth activity of each test compound.
pot: Concentration of each test compound at which to accelerate cell growth by 30% of a maximum cell growth activity of compound A (compound A and rhTPO in rhTPO)
Efficacy: Maximum cell growth activity of each test compound when a maximum cell growth activity of compound A (compound A and rhTPO in rhTPO) is defined as 100%.
Compound A refers to a compound in Example 9 of the foregoing Patent Document 10.

Experiment [2] concerns Human CD34+ cells. The experiment is described as follows: Test for measuring a function of accelerating formation of megakaryocytic colonies. The format is cell-based. To be noted: megakaryocytic colony formation, 10 to 14 days, MegaCult-C. How it is done:
(ii) Test for Measuring a Function of Accelerating Formation of Megakaryocytic Colonies
Human CD34^+ cells were cultured in a 2-well chamber slide in the presence of a test product at 37° C. for from 10 to 14 days using MegaCult™-C (StemCell Technologies). After dehydration and fixation were conducted according to the attached manual, dying was conducted with an anti-glycoprotein IIb/IIIa antibody. The number of colonies for 1 well was counted by a microscope on condition that a population of 3 or more dyed megakaryocytes was one colony. An EC30 value of each test compound was calculated from a dose curve.

Experiment [3] deals with T1, human c-mpl-Ba/F3 cells. The experiment is described as follows: Mouse oral administration test: human c-mpl-Ba/F3 cell growth activity of a plasma after oral administration. The format is in vivo. The settings on record: male ICR mouse, plasma 2 h after administration, maximum activity of each test compound = 100%. How it is done: (iii) Mouse Oral Administration Test
3 mg/kg or 10 mg/kg (100 mg/kg in Comparative Compounds 1 to 3) of a test compound dissolved or suspended in a 0.5% methylcellulose aqueous solution was orally administered to a male ICR mouse. After 2 hours from administration, a blood was sampled from the subabdominal large vein using 1/10-volume 3.8% sodium citrate as an anticoagulant. Centrifugation was performed at 12,000 rpm for 3 minutes. The resulting plasma was heated at 56° C. for 30 minutes, and added to a system of the human c-mpl-Ba/F3 cell growth test described in (i) such that the final concentration of the plasma reached 0.3%, 1% or 3% (10% in Comparative Compounds 1 to 3) to measure a cell growth activity. The cell growth activity (%) of each plasma was measured when the maximum cell growth activity of each test compound was defined as 100%.

The mark [4] stands for this setting: 10 mg/kg p.o., dilution rate 3%.

SMILES strings stand for the structures.

Regarding `CCCCN(C)Cc1sc(NC(=O)c2cnc(N3CCC(C(=O)O)CC3)c(Cl)c2)nc1-c1cc(Cl)cs1` [Example 71, 1-(5-{[5-{[butyl(methyl)amino]methyl}-4-(4-chlorothiophen-2-yl)thiazol-2-yl]carbamoyl}-3-chloro-2-pyridyl)piperidin-4-carboxylic acid], in experiment [1], the Pot is 2.0 nM and the Emax is 110%. The compound also yielded an EC30 value in experiment [2] of 20 nM. The Cell growth activity entry in experiment [3] (3 mg/kg p.o., dilution rate 3%) is listed as “≧80%”.

With `CN(Cc1sc(NC(=O)c2cnc(N3CCC(C(=O)O)CC3)c(Cl)c2)nc1-c1cc(Cl)cs1)C1CCC1` [Example 100, 1-{3-chloro-5-[(4-(4-chlorothiophen-2-yl)-5-{[cyclobutyl(methyl)amino]methyl}thiazol-2-yl)carbamoyl]-2-pyridyl}piperidine-4-carboxylic acid], in experiment [1], the Pot turned out to be 2.9 nM and the Emax was determined as 117%. The compound also came in with an EC30 value in experiment [2] of 34 nM. Moreover, the Cell growth activity entry in experiment [3] (3 mg/kg p.o., dilution rate 3%) is recorded as “≧80%”.

In the case of `CC(C)N(C)Cc1sc(NC(=O)c2cnc(N3CCC(C(=O)O)CC3)c(Cl)c2)nc1-c1cc(Cl)cs1` [Example 104, 1-{3-chloro-5-[(4-(4-chlorothiophen-2-yl)-5-{[isopropyl(methyl)amino]methyl}thiazol-2-yl)carbamoyl]-2-pyridyl}piperidine-4-carboxylic acid], in experiment [1], the Pot was 3.5 nM and the Emax is 105%. In experiment [2], this compound gave an EC30 value of 36 nM. This compound yielded a Cell growth activity in experiment [3] (3 mg/kg p.o., dilution rate 1%) of 63%.

Turning to `C[C@H]1CCCN1Cc1sc(NC(=O)c2cnc(N3CCC(C(=O)O)CC3)c(Cl)c2)nc1-c1cc(Cl)cs1` [Example 106, 1-{3-chloro-5-[(4-(4-chlorothiophen-2-yl)-5-{[(2S)-2-methylpyrrolidin-1-yl]methyl}thiazol-2-yl)carbamoyl]-2-pyridyl}piperidine-4-carboxylic acid], in experiment [1], the Pot worked out at 2.1 nM and the Emax turned out to be 112%. Further, the EC30 value in experiment [2] is given as 23 nM. In experiment [3] (3 mg/kg p.o., dilution rate 1%), this compound yielded a Cell growth activity of 63%.

Turning to `CCCCN(C)Cc1sc(NC(=O)c2cnc(NCCCO)c(Cl)c2)nc1-c1cc(Cl)cs1` [Example 151, N-[5-{[butyl(methyl)amino]methyl}-4-(4-chlorothiophen-2-yl)thiazol-2-yl]-5-chloro-6-[(3-hydroxypropyl)amino]nicotinamide], in experiment [1], the Pot amounted to 8.4 nM and the Emax worked out at 99%. Also, the Cell growth activity in experiment [3] (setting [4]) is 24%.

Regarding `CCCCN(C)Cc1sc(NC(=O)c2cnc(N3CCNC(=O)C3)c(Cl)c2)nc1-c1cc(Cl)cs1` [Example 153, N-[5-{[butyl(methyl)amino]methyl}-4-(4-chlorothiophen-2-yl)thiazol-2-yl]-5-chloro-6-(3-oxopiperazin-1-yl)nicotinamide], in experiment [1], the Pot came to 6.1 nM and the Emax was 99%. Also, the Cell growth activity in experiment [3] (setting [4]) came out at 29%.

As to `C[C@@H]1CCCN1Cc1sc(NC(=O)c2cnc(N3CCC(C(=O)O)CC3)c(F)c2)nc1-c1cc(Cl)cs1` [Example 315, 1-{5-[(4-(4-chlorothiophen-2-yl)-5-{[(2R)-2-methylpyrrolidin-1-yl]methyl}thiazol-2-yl)carbamoyl]-3-fluoro-2-pyridyl}piperidin-4-carboxylic acid], in experiment [1], the Pot was determined as 3.2 nM and the Emax was 98%. The EC30 value in experiment [2] stood at 45 nM.

For the origin of these results see patent US7361658B2, “2-acylaminothiazole derivative or salt thereof” (Astellas Pharma Inc., priority 2003, dated 2008).
